Reference: patent US20150284342A1, “BIS(FLUOROALKYL)-1,4-BENZODIAZEPINONE COMPOUNDS” (BRISTOL-MYERS SQUIBB COMPANY, priority 2011, published 2015)
Where two headings read alike, the source gives them in different places.

Legend:
[1] = High Throughput (HT) Metabolic Stability Panel, mouse liver microsomes
Experimental: (§1) Each compound was tested in duplicate.

Notch 1 = experiment: Notch-CBF1 Transactivation Assay (Notch 1); assay type: cell-based
Text: (§2) Table 12 denotes respective DNA quantity for the transfections.
(§3) Duplicates were used for each sample.

Notch 3 = experiment: Notch-CBF1 Transactivation Assay (Notch 3); assay type: cell-based
Text: as §2, §3

[2] = High Throughput (HT) Metabolic Stability Panel, human liver microsomes
Experimental: as §1

[3] = 0.5 μM compound, mouse liver microsomes, 10 min incubation
[4] = read-out: Notch 1 (IC50), HeLa cells, luciferase, rounded to 2 digits
[5] = read-out: Notch 3 (IC50), HeLa cells, luciferase, rounded to 2 digits
[6] = 0.5 μM compound, human liver microsomes, 10 min incubation
[7] = HeLa cells, luciferase, rounded to 2 digits, read-out: Notch 1 (IC50)
[8] = HeLa cells, luciferase, rounded to 2 digits, read-out: Notch 3 (IC50)

Structure (SMILES) | 0.5 μM MsLM (% Remaining) [1, 3] [%] | IC50 (Notch 1; [4]) [nM] | IC50 (Notch 3; [5]) [nM] | 0.5 μM HLM (% Remaining) [2, 6] [%] | 0.5 μM MsLM (% Remaining) ([1]; mouse, microsomes, 10 min, 0.5 µM, pH 7.4) [%] | IC50 (Notch 1; [7]) [nM] | IC50 (Notch 3; [8]) [nM] | 0.5 μM HLM (% Remaining) ([2]; human, microsomes, 10 min, 0.5 µM, pH 7.4) [%]
CC(C)C[C@@H](C(=O)N[C@H]1N=C(c2ccccc2)c2ccccc2N(C)C1=O)[C@H](CCC(F)(F)F)C(N)=O [Comparative Compound 22, reference compound] | 15 | 64 | 48 | 39 | – | – | – | –
C=CC[C@H](C(N)=O)[C@@H](CC(C)C)C(=O)N[C@H]1N=C(c2ccccc2)c2cc(Cl)ccc2N(C)C1=O [Comparative Compound 23, reference compound] | 9.0 | – | – | 19 | – | – | – | –
CCCC[C@H](C(N)=O)[C@@H](CC(C)C)C(=O)N[C@H]1N=C(c2ccc(Cl)cc2)c2ccccc2N(C)C1=O [Comparative Compound 24, reference compound] | 13 | – | – | 21 | – | – | – | –
C=CC[C@H](C(N)=O)[C@@H](CC(C)C)C(=O)N[C@H]1N=C(c2ccccc2)c2ccccc2N(CCC)C1=O [Comparative Compound 25, reference compound] | 0.18 | – | – | 2.7 | – | – | – | –
CN1C(=O)[C@@H](NC(=O)[C@H](CC(F)(F)F)[C@H](CCC(F)(F)F)C(N)=O)N=C(c2ccccc2)c2ccccc21 [Example 3, (2R,3S)—N-((3S)-1-Methyl-2-oxo-5-phenyl-2,3-dihydro-1H-1,4-benzodiazepin-3-yl)-2-(2,2,2-trifluoroethyl)-3-(3,3,3-trifluoropropyl)succinamide] | 91 | 3.1 | 4.7 | 84 | – | – | – | –
CN1C(=O)[C@@H](NC(=O)[C@H](CCC(F)(F)F)[C@H](CC(F)(F)F)C(N)=O)N=C(c2ccccc2)c2ccccc21 [Example 4, (2R,3S)—N-((3S)-1-Methyl-2-oxo-5-phenyl-2,3-dihydro-1H-1,4-benzodiazepin-3-yl)-3-(2,2,2-trifluoroethyl)-2-(3,3,3-trifluoropropyl)succinamide] | 91 | 1.5 | 2.5 | 100 | – | – | – | –
[2H]C([2H])([2H])N1C(=O)[C@@H](NC(=O)[C@H](CCC(F)(F)F)[C@H](CCC(F)(F)F)C(N)=O)N=C(c2ccccc2)c2ccccc21 [Example 5, (2R,3S)—N-((3S)-1-(^2H3)Methyl-2-oxo-5-phenyl-2,3-dihydro-1H-1,4-benzodiazepin-3-yl)-2,3-bis(3,3,3-trifluoropropyl)succinamide] | – | – | – | – | 98 | 1.2 | 5.9 | 100
CN1C(=O)[C@@H](NC(=O)[C@H](CCC(F)(F)F)[C@H](CCC(F)(F)F)C(N)=O)N=C(c2ccccc2)c2cc(Cl)ccc21 [Example 6, (2R,3S)—N-((3S)-7-chloro-1-methyl-2-oxo-5-phenyl-2,3-dihydro-1H-1,4-benzodiazepin-3-yl)-2,3-bis(3,3,3-trifluoropropyl)succinamide] | 100 | 6.5 | 10 | 100 | – | – | – | –
COc1ccc2c(c1)N(C)C(=O)[C@@H](NC(=O)[C@H](CCC(F)(F)F)[C@H](CCC(F)(F)F)C(N)=O)N=C2c1ccccc1 [Example 7, (2R,3S)—N-((3S)-8-methoxy-1-methyl-2-oxo-5-phenyl-2,3-dihydro-1H-1,4-benzodiazepin-3-yl)-2,3-bis(3,3,3-trifluoropropyl)succinamide] | 72 | – | – | 93 | – | 1.5 | 2.8 | –
CN1C(=O)[C@@H](NC(=O)[C@H](CCC(F)(F)F)[C@H](CCC(F)(F)F)C(N)=O)N=C(c2ccccc2)c2ccc(F)cc21 [Example 8, (2R,3S)—N-((3S)-8-fluoro-1-methyl-2-oxo-5-phenyl-2,3-dihydro-1H-1,4-benzodiazepin-3-yl)-2,3-bis(3,3,3-trifluoropropyl)succinamide] | 100 | 4.9 | 8.1 | 96 | – | – | – | –
COc1ccc2c(c1)C(c1ccccc1)=N[C@H](NC(=O)[C@H](CCC(F)(F)F)[C@H](CCC(F)(F)F)C(N)=O)C(=O)N2C [Example 9, (2R,3S)—N-((3S)-7-methoxy-1-methyl-2-oxo-5-phenyl-2,3-dihydro-1H-1,4-benzodiazepin-3-yl)-2,3-bis(3,3,3-trifluoropropyl)succinamide] | 87 | 4.4 | 8.2 | 100 | – | – | – | –
CN1C(=O)[C@@H](NC(=O)[C@H](CCC(F)(F)F)[C@H](CCC(F)(F)F)C(N)=O)N=C(c2ccccc2)c2cc(F)ccc21 [Example 10, (2R,3S)—N-((3S)-7-fluoro-1-methyl-2-oxo-5-phenyl-2,3-dihydro-1H-1,4-benzodiazepin-3-yl)-2,3-bis(3,3,3-trifluoropropyl)succinamide] | 98 | 2.9 | 4.6 | 96 | – | – | – | –
CN1C(=O)[C@@H](NC(=O)[C@H](CCC(F)(F)F)[C@H](CCC(F)(F)F)C(N)=O)N=C(c2ccccc2)c2ccc(Cl)cc21 [Example 11, (2R,3S)—N-((3S)-8-chloro-1-methyl-2-oxo-5-phenyl-2,3-dihydro-1H-1,4-benzodiazepin-3-yl)-2,3-bis(3,3,3-trifluoropropyl)succinamide] | 98 | 1.3 | 2 | 97 | – | – | – | –
COc1cccc2c1NC(=O)[C@@H](NC(=O)[C@H](CCC(F)(F)F)[C@H](CCC(F)(F)F)C(N)=O)N=C2c1ccccc1 [Example 12, (2R,3S)—N-((3S)-9-methoxy-2-oxo-5-phenyl-2,3-dihydro-1H-1,4-benzodiazepin-3-yl)-2,3-bis(3,3,3-trifluoropropyl)succinamide] | 100 | 2.5 | 4.2 | 100 | – | – | – | –
COc1ccc2c(c1)NC(=O)[C@@H](NC(=O)[C@H](CCC(F)(F)F)[C@H](CCC(F)(F)F)C(N)=O)N=C2c1ccccc1 [Example 13, (2R,3S)—N-((3S)-8-methoxy-2-oxo-5-phenyl-2,3-dihydro-1H-1,4-benzodiazepin-3-yl)-2,3-bis(3,3,3-trifluoropropyl)succinamide] | 97 | – | – | 100 | – | 2.1 | 3.8 | –
COc1ccc2c(c1)C(c1ccccc1)=N[C@H](NC(=O)[C@H](CCC(F)(F)F)[C@H](CCC(F)(F)F)C(N)=O)C(=O)N2 [Example 14, (2R,3S)—N-((3S)-7-methoxy-2-oxo-5-phenyl-2,3-dihydro-1H-1,4-benzodiazepin-3-yl)-2,3-bis(3,3,3-trifluoropropyl)succinamide] | 95 | – | – | 100 | – | 5.2 | 13 | –
COc1c(C#N)ccc2c1NC(=O)[C@@H](NC(=O)[C@H](CCC(F)(F)F)[C@H](CCC(F)(F)F)C(N)=O)N=C2c1ccccc1 [Example 15, (2R,3S)—N-((3S)-8-cyano-9-methoxy-2-oxo-5-phenyl-2,3-dihydro-1H-1,4-benzodiazepin-3-yl)-2,3-bis(3,3,3-trifluoropropyl)succinamide] | 93 | 12 | 16 | 100 | – | – | – | –
NC(=O)[C@@H](CCC(F)(F)F)[C@@H](CCC(F)(F)F)C(=O)N[C@H]1N=C(c2ccccc2)c2ccc(Cl)c(Cl)c2NC1=O [Example 16, (2R,3S)—N-((3S)-8,9-dichloro-2-oxo-5-phenyl-2,3-dihydro-1H-1,4-benzodiazepin-3-yl)-2,3-bis(3,3,3-trifluoropropyl)succinamide] | 91 | 4.2 | 6.4 | 80 | – | – | – | –
NC(=O)[C@@H](CCC(F)(F)F)[C@@H](CCC(F)(F)F)C(=O)N[C@H]1N=C(c2ccccc2)c2cccc(F)c2NC1=O [Example 17, (2R,3S)—N-((3S)-9-fluoro-2-oxo-5-phenyl-2,3-dihydro-1H-1,4-benzodiazepin-3-yl)-2,3-bis(3,3,3-trifluoropropyl)succinamide] | 96 | 3.6 | 7.1 | 100 | – | – | – | –
NC(=O)[C@@H](CCC(F)(F)F)[C@@H](CCC(F)(F)F)C(=O)N[C@H]1N=C(c2ccccc2)c2cccc(Cl)c2NC1=O [Example 18, (2R,3S)—N-((3S)-9-chloro-2-oxo-5-phenyl-2,3-dihydro-1H-1,4-benzodiazepin-3-yl)-2,3-bis(3,3,3-trifluoropropyl)succinamide] | 100 | 0.53 | 2.3 | 100 | – | – | – | –
NC(=O)[C@@H](CCCC(F)(F)F)[C@@H](CCC(F)(F)F)C(=O)N[C@H]1N=C(c2ccccc2)c2ccccc2NC1=O [Example 19, (2R,3S)—N-((3S)-2-Oxo-5-phenyl-2,3-dihydro-1H-1,4-benzodiazepin-3-yl)-3-(4,4,4-trifluorobutyl)-2-(3,3,3-trifluoropropyl)succinamide] | 97 | 1.3 | 3.8 | 96 | – | – | – | –
COc1ccc2c(c1)NC(=O)[C@@H](NC(=O)[C@H](CCC(F)(F)F)[C@H](CCCC(F)(F)F)C(N)=O)N=C2c1ccccc1 [Example 20, (2R,3S)—N1-((3S)-8-Methoxy-2-oxo-5-phenyl-2,3-dihydro-1H-1,4-benzodiazepin-3-yl)-3-(4,4,4-trifluorobutyl)-2-(3,3,3-trifluoropropyl)succinamide] | 100 | 2.9 | 4.2 | 100 | – | – | – | –
